Experimental data: patent US20250179584A1, “PRECISION THERAPY FOR THE TREATMENT OF CANCER” (Novartis AG, priority 2022, published 2025)

Key:
[1] = test system: BRAF mutant and CRAF kinases; details: cited from earlier work
NRAS mutated melanoma [2] = details: cited from earlier work
[3] = test system: solid tumors (salivary gland tumor and NSCLC) harboring pan-RAS codon Q61 or G13R mutations; type: in vivo, human; details: LXH254 single agent
NRAS mutated melanoma [4] = type: in vivo, human; details: single agent, 10 patients, doses 400-1200 qd and 200-800 bid, data cut May 31, 2021
Description: Clinical data further supports the pre-clinical findings.

[5] = test system: pan-RAS codon Q61/G13R mutant models (NSCLC, melanoma, PDAC, rhabdomyosarcomas); details: independently of the mutated RAS gene and tissue origin
[6] = test system: cell lines that contain a variety of mutations that activate MAPK signaling; details: cited from earlier work
KRAS-mutant models = details: several KRAS-mutant models, well-tolerated doses; cited from earlier work
[7] = test system: KRAS G12, G13C and G13D mutant NSCLC; details: single agent, second line; cited from earlier work
[8] = test system: advanced melanoma with NRAS mutation; details: trametinib monotherapy, 7 patients with NRAS mutation; cited from earlier work
[9] = test system: unresectable stage III/IV metastatic melanoma resistant to anti-PD (L)-1 therapy; details: monotherapy, 162 patients, cited from earlier work

For `Cc1ccc2c(Nc3cccc(Cl)c3F)nccc2c1NC(=O)c1csc2c(N)ncnc12` [Belvarafenib, 4-amino-N-(1-((3-chloro-2-fluorophenyl)amino)-6-methylisoquinolin-5-yl) thieno[3,2-d]pyrimidine-7-carboxamide], the selectivity [1] is given as “high selectivity”.
For `Cn1cnc2c(F)c(Nc3ccc(Br)cc3F)c(C(=O)NOCCO)cc21` [binimetinib], the ORR (NRAS mutated melanoma [2]; 402 patients, untreated (~79%) and previously treated with immunotherapy (~21%)) is listed as 15%, the mOS (NRAS mutated melanoma [2]; 402 patients) is listed as 11 months and the mPFS (NRAS mutated melanoma [2]; 402 patients) is listed as 2.8 months. The anti-tumor activity (NRAS mutated melanoma [2]; single agent MEK inhibitor, NEMO study) was “limited anti-tumor activity”.
With `Cc1ccc(NC(=O)c2ccnc(C(F)(F)F)c2)cc1-c1cc(OCCO)nc(N2CCOCC2)c1` [naporafenib, N-(3-(2-(2-hydroxyethoxy)-6-morpholino-pyridin-4-yl)-4-methylphenyl)-2-(trifluoromethyl) isonicotinamide] the “response to single agent therapy” value [3] was “exceptional responders”, the “SDs (stable disease)” value (NRAS mutated melanoma [4]) was 4 and the responses (NRAS mutated melanoma [4]) was “no responses”. The “activity in non-clinical models” value [5] was “consistent activity”, the anti-proliferative activity [6] was “demonstrated anti-proliferative activity” and the “tumor response in vivo” value (KRAS-mutant models) was “tumor regression”.
For `CC(=O)Nc1cccc(-n2c(=O)n(C3CC3)c(=O)c3c(Nc4ccc(I)cc4F)n(C)c(=O)c(C)c32)c1` [trametinib, N-(3-{3-cyclopropyl-5-[(2-fluoro-4-iodophenyl)amino]-6,8-dimethyl-2,4,7-trioxo-3,4,6,7-tetrahydropyrido[4,3-d]pyrimidin-1 (2H)-yl}phenyl) acetamide], the “superiority against standard of care docetaxel” value [7] is listed as “failed to demonstrate superiority” and the responses [8] is listed as “no responses”.
For Ipilimumab: anti-CTLA-4 therapy, the “objective response rate (ORR)” value ([9]; irrespective of mutation status) is given as 13%, the “median overall survival (mOS)” value [9] is given as 8.8 months and the “median progression free survival (PFS)” value [9] is given as 2.6 months.
